# In patent US7601501B2, “Controlling osteogenesis by inhibition of osteogenic suppressors” (The Scripps Research Institute, priority 2006, dated 2009):
# Entries after “also recorded” stand apart in the source; their conditions may differ.
# How the values were obtained:
# [1] = system: human mesenchymal stem cells (hMSCs); test: Compound treatment: adipogenic differentiation / cell fate switch of hMSCs; type: cell-based; settings: for differentiation of hMSCs into mature adipocytes: combined treatment with dexamethasone; for adipogenic differentiation of hMSCs promoted by compound: especially in the presence of dexamethasone (DEX); for cell fate switch from osteogenic to adipogenic: hMSCs treated with the OS media
# Procedure: Cells were rinsed with PBS twice, fixed in 10% formalin solution for 20 minutes, rinsed with PBS twice and dH2O once, washed with propylene glycol for 5 minutes, and stained with Oil red in propylene glycol (I2722A, Newcomer Supply) for 30 minutes. Cells were then washed with 85% propylene glycol for 5 minutes, rinsed with dH2O 3 times and preserved in 50% glycerol.
# (§1) 8-CPT-cAMP, Na (cat# 116812), 5-Iodotubercidin (cat# 407900), Prostaglandin E2 (PGE2, cat# 538904), SB 202190 (cat# 559388) and U0126 (cat# 662005) were purchased from Calbiochem; N6,2′-O-Dibutyryl-cAMP (cat# D0260-5MG), forskolin (cat# F6886), ascorbic acid 2-phosphate (cat# 49752-10G), β-glycerophosphate (G-6251), dexamethasone (D8893), 3-isobutyl-1-methylxanthine (IBMX, I5879) and Insulin (I 9278) were purchased from Sigma/Aldrich/Fluka.
# (§2) Since the targeted genes are all positively involved in intracellular cAMP signaling, we tested the effect of two compounds of opposing function on cAMP production on osteogenic differentiation of hMSCs, ADK inhibitor 5-iodotubercidin and ADCY activator forskolin (Cottam, H. B. et al., J Med Chem 36:3424-3430 (1993); de Souza, N. J. et al., Med Res Rev 3:201-219 (1983)). […] ATP has been shown as a ligand for P2RY11 receptor (Communi et al., 1997). […] The present observations are consistent with the conclusion that […] in hMSCs, and vice versa.
# [2] = system: human mesenchymal stem cells (hMSCs); test: Compound treatment: OS-induced osteogenic differentiation of hMSCs (ALP / alizarin red staining); type: cell-based; settings: for osteogenic effect of the OS media on hMSCs: compound combined with OS treatment, ALP and/or alizarin red staining
# Procedure: as §1, §2
# [3] = system: human mesenchymal stem cells (hMSCs); test: Alizarin red staining for calcium phosphate deposits (ECM mineralization, bone cell maturation); type: cell-based; settings: for intensity of alizarin red staining (bone cell maturation), 3+9OS: OS started three days after siRNA transfection and continued for 9 days
# Procedure: Cells were rinsed with PBS twice, stained in alizarin red solution (cat# vw3611-2, VWR) for 8 minutes at room temperature, washed with PBS again, fixed in 10% formalin solution (cat# HT-5014, Sigma) for 20 minutes, then rinsed with water and air dried.
# Bone cell maturation is accompanied by extracellular matrix (ECM) mineralization (John Bilezikian et al., Principles of bone biology, Vol 1, 2nd edn: Academic Press) (2002)). […] […] These observations are consistent with the conclusion that the targeted genes of the ten effective hit siRNAs not only play inhibitory roles in osteogenic specification of hMSCs, but also in bone cell maturation. […] Furthermore, in osteoporotic patients, the number of adipocytes was increased in the marrow, implying a change of cell fate disposition from osteoblast lineage to adipocyte lineage (Justesen, J. et al., Biogerontology 2:165-171 (2001); Meunier, P. et al., Clin Orthop Relat Res 80:147-154 (1971)). We therefore examined the effect of our hit siRNAs on adipogenic differentiation of hMSCs by combined treatment with an adipogenic inducing cocktail (100 μg/ml IBMX, 1 μM DEX and 10 μg/ml insulin).
# CREB = test: Western blot of phospho-CREB in transfected hMSCs; type: cell-based, human; settings: 3 days after transfection, compared to siCon treated or untreated
# Procedure: Cell lyses buffer contains 20 mM Tris pH8.0, 1 mM EDTA, 150 mM NaCl and 0.5% NP-40, and before usage, protease inhibitor cocktail (Cat# p8340, Sigma, 1:100 dilution) and phosphatase inhibitor cocktail 2 (Cat# p5726, sigma, 1:100 dilution) were added. Proteins (60 μg/well) were separated in 12% Novex Tris-Glycine gel (Cat# EC6008 box, Invitrogen) and transferred to Nitrocellulose membrane (Cat# LC2001, Invitrogen) using the XCell II blot module system (Cat# EI9051, Invitrogen). The membrane was blocked in 5% milk/PBST for 1 hour at room temperature, incubated over night at 4 degree with primary antibody, washed 3 times with PBST (0.05% Tween 20 in PBS), followed by one hour incubation with secondary antibody in 5% milk/PBST and 3 times wash with PBST at room temperature. For antibody against pCREB however, PBST was substituted with PBS in all steps except for the last one. Antibody-bound proteins were detected utilizing ECL Western blotting detection reagent (Amersham Biosciences).
# Anti-phospho-CREB was purchased from Upstate Biotechnology (cat# 06-519); Anti-phospho-p38 was purchased from Cell signaling technology (cat# 9910).
# To find out whether CREB (cAMP Responding Element Binding protein), a common downstream effector of cAMP signaling pathway, is involved in mediating cAMP signaling controlled differentiation of hMSCs, we checked the expression level of the active form of CREB proteins in cells 3 days after siP2RY11, siADK, siGNAS, siSLC12a2 or siCon transfection. […] To further examine the role of CREB in osteogenesis and adipogenesis, a synthetic 24-mer CRE decoy oligonucleotide that can compete with endogenous CRE enhancers for binding proteins was transfected into hMSCs (Park, Y. G. et al., J Biol Chem 274:1573-1580 (1999)), which were then subjected to the treatment of osteogenic or adipogenic induction media.
molecule,measurement,setting,value
Nc1ncnc2c1nc(Sc1ccc(Cl)cc1)n2[C@@H]1O[C@@H]2COP(=O)(O)O[C@H]2[C@H]1O [8-CPT-cAMP],differentiation of hMSCs into mature adipocytes,[1],sufficient to differentiate hMSCs into mature adipocytes
same,adipogenic differentiation of hMSCs promoted by compound,[1],promoted hMSCs to undergo adipogenic differentiation
same,cell fate switch from osteogenic to adipogenic,[1],could switch cell fate commitment from osteogenic to adipogenic
same,cell fate switch from osteogenic to adipogenic,[1]; listed as CPT-cAMP,could switch cell fate determination from osteogenic to adipogenic differentiation
Nc1ncnc2c1ncn2[C@@H]1O[C@H](COP(=O)(O)OP(=O)(O)OP(=O)(O)O)[C@@H](O)[C@H]1O [ATP],siP2RY11 and siSLC12a2 induced osteogenesis in combination with OS (ALP staining),"[2]; OS and ATP added on the third day after siRNA transfection, continued for a week",dosage-dependent inhibitory effect
same,osteogenic effect of the OS media on hMSCs,[2],inhibited; also recorded: dosage-dependent inhibitory effect
same,number of cells undergoing adipogenic differentiation,[1]; dosage dependent manner,slightly increases
"CCCC(=O)Nc1ncnc2c1ncn2[C@@H]1O[C@@H]2COP(=O)(O)O[C@H]2[C@H]1OC(=O)CCC [DB-cAMP, N6,2′-dibutyryl-cAMP]",differentiation of hMSCs into mature adipocytes,[1],sufficient to differentiate hMSCs into mature adipocytes
same,adipogenic differentiation of hMSCs promoted by compound,[1],promoted hMSCs to undergo adipogenic differentiation
"CC(C)Cn1c(=O)n(C)c(=O)c2[nH]cnc21 [IBMX, 3-isobutyl-1-methylxanthine]",adipogenic differentiation of hMSCs promoted by compound,[1],promoted hMSCs to undergo adipogenic differentiation
same,cell fate switch from osteogenic to adipogenic,[1],could switch cell fate determination from osteogenic to adipogenic differentiation
COc1cccc(-c2cc(=O)c3ccccc3o2)c1N [PD98059],osteogenic effect of the OS media on hMSCs,[2],inhibited the osteogenic inducing effect of OS
"CCCCC[C@H](O)/C=C/[C@H]1[C@H](O)CC(=O)[C@@H]1C/C=C\CCCC(=O)O [PGE2, Prostaglandin E2]",cell fate switch from osteogenic to adipogenic,[1],could switch cell fate determination from osteogenic to adipogenic differentiation
Oc1ccc(-c2nc(-c3ccncc3)c(-c3ccc(F)cc3)[nH]2)cc1 [SB202190],osteogenic effect of the OS media on hMSCs,[2],inhibited the osteogenic inducing effect of OS
"CCCAGGUCUCCGAUGAACU (siRNA; listed as RNA, chemistry not fully specified) [siBCL212, siRNA targeting BCL2-like 2]","intensity of alizarin red staining (bone cell maturation), 3+9OS",[3],modest enhancement
"CCCGAAAACAUUGCUAGCA (siRNA; listed as RNA, chemistry not fully specified) [siGBDR1, siRNA targeting putative glialblastoma cell differentiation-related]","intensity of alizarin red staining (bone cell maturation), 3+9OS",[3],dramatically enhanced
"CCUCUUCGUGGCUACAUCU (siRNA; listed as RNA, chemistry not fully specified) [siSLC12a2, siRNA targeting solute carrier family 12, member 2]","intensity of alizarin red staining (bone cell maturation), 3+9OS",[3],dramatically enhanced
same,level of pCREB protein (Western blot),CREB,increased
"GCCACACAAAGCAGCAACA (siRNA; listed as RNA, chemistry not fully specified) [siADK, siRNA targeting adenosine kinase]","intensity of alizarin red staining (bone cell maturation), 3+9OS",[3],dramatically enhanced
same,"intensity of alizarin red staining, sequential siRNA then OS","[3]; siRNA initial 2-4 days followed by OS (2+6OS, 3+5OS, 4+4OS), vs siCon",clearly enhanced the intensity of alizarin red staining; also recorded: enhancing effect
same,level of pCREB protein (Western blot),CREB,increased
"GGAGAUCAACAAGCAUUCA (siRNA; listed as RNA, chemistry not fully specified) [siADCY8, siRNA targeting adenylate cyclase 8]","intensity of alizarin red staining (bone cell maturation), 3+9OS",[3],weak enhancement
"UCGAAGAUUGAGGACUACU (siRNA; listed as RNA, chemistry not fully specified) [siGNAS, siRNA targeting GNAS complex locus]","intensity of alizarin red staining (bone cell maturation), 3+9OS",[3],dramatically enhanced
same,level of pCREB protein (Western blot),CREB,increased
"UGCCAAAGAGGAUGUACAU (siRNA; listed as RNA, chemistry not fully specified) [siTBX3, siRNA targeting T-box 3 (ulnar mammary syndrome)]","intensity of alizarin red staining (bone cell maturation), 3+9OS",[3],no significant effect
"UGCGAGCCAAGAUGGACAA (siRNA; listed as RNA, chemistry not fully specified) [siKCNT1, siRNA targeting potassium channel, subfamily T, member 1]","intensity of alizarin red staining (bone cell maturation), 3+9OS",[3],dramatically enhanced
"UGCGGGUGCUCAACGUGGA (siRNA; listed as RNA, chemistry not fully specified) [siP2RY11, siRNA targeting purinergic receptor P2Y, G-protein coupled, 11]","intensity of alizarin red staining (bone cell maturation), 3+9OS",[3],dramatically enhanced
same,level of pCREB protein (Western blot),CREB,increased
"UGUGCUACACAGUCAUUAC (siRNA; listed as RNA, chemistry not fully specified) [siBIRC4, siRNA targeting baculoviral IAP repeat-containing 4]","intensity of alizarin red staining (bone cell maturation), 3+9OS",[3],weak enhancement
